Reference: PubChem BioAssay (NCI)
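A five-concentration, 48-hour dose response in 96-well plates underlies each endpoint, interpolated linearly between surrounding concentrations. TGI marks complete inhibition of growth.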

Columns and labels:
Assay in all cases: NCI tumour cell line growth inhibition, 48 h
786-0 renal = tested on: 786-0 renal
A498 renal = tested on: A498 renal
A549 NSCLC = tested on: A549 NSCLC
BT-549 breast = tested on: BT-549 breast
CAKI-1 renal = tested on: CAKI-1 renal
COLO 205 colon = tested on: COLO 205 colon
DU-145 prostate = tested on: DU-145 prostate
EKVX NSCLC = tested on: EKVX NSCLC
HCC-2998 colon = tested on: HCC-2998 colon
HCT-116 colon = tested on: HCT-116 colon
HCT-15 colon = tested on: HCT-15 colon
HL-60(TB) leukemia = tested on: HL-60(TB) leukemia
HOP-62 NSCLC = tested on: HOP-62 NSCLC
HOP-92 NSCLC = tested on: HOP-92 NSCLC
HS 578T breast = tested on: HS 578T breast
HT29 colon = tested on: HT29 colon
IGROV1 ovarian = tested on: IGROV1 ovarian
KM12 colon = tested on: KM12 colon
LOX IMVI melanoma = tested on: LOX IMVI melanoma
M14 melanoma = tested on: M14 melanoma
MALME-3M melanoma = tested on: MALME-3M melanoma
MCF7 breast = tested on: MCF7 breast
MDA-MB-231 breast = tested on: MDA-MB-231 breast
MDA-MB-435 = tested on: MDA-MB-435
MDA-N = tested on: MDA-N
MOLT-4 leukemia = tested on: MOLT-4 leukemia
NCI-H226 lung = tested on: NCI-H226 lung
NCI-H23 lung = tested on: NCI-H23 lung
NCI-H460 lung = tested on: NCI-H460 lung
NCI-H522 lung = tested on: NCI-H522 lung
NCI/ADR-RES ovarian = tested on: NCI/ADR-RES ovarian
OVCAR-3 ovarian = tested on: OVCAR-3 ovarian
OVCAR-4 ovarian = tested on: OVCAR-4 ovarian
OVCAR-5 ovarian = tested on: OVCAR-5 ovarian
OVCAR-8 ovarian = tested on: OVCAR-8 ovarian
PC-3 prostate = tested on: PC-3 prostate
RXF 393 renal = tested on: RXF 393 renal
SF-268 CNS = tested on: SF-268 CNS
SF-295 CNS = tested on: SF-295 CNS
SF-539 CNS = tested on: SF-539 CNS
SK-MEL-2 melanoma = tested on: SK-MEL-2 melanoma
SK-MEL-28 melanoma = tested on: SK-MEL-28 melanoma
SK-MEL-5 melanoma = tested on: SK-MEL-5 melanoma
SN12C renal = tested on: SN12C renal
SNB-19 CNS = tested on: SNB-19 CNS
SNB-75 CNS = tested on: SNB-75 CNS
SR leukemia = tested on: SR leukemia
SW-620 colon = tested on: SW-620 colon
TK-10 renal = tested on: TK-10 renal
U251 CNS = tested on: U251 CNS
UACC-257 melanoma = tested on: UACC-257 melanoma
UACC-62 melanoma = tested on: UACC-62 melanoma
UO-31 renal = tested on: UO-31 renal
ACHN renal = tested on: ACHN renal
CCRF-CEM leukemia = tested on: CCRF-CEM leukemia
K-562 leukemia = tested on: K-562 leukemia
RPMI-8226 leukemia = tested on: RPMI-8226 leukemia
SK-OV-3 ovarian = tested on: SK-OV-3 ovarian
T-47D breast = tested on: T-47D breast

For `CC[C@@]1(O)C(=O)OCc2c1cc1n(c2=O)Cc2c-1nc1ccccc1c2/C=N\NC(=O)C(C)N` (stereo partly drawn), the TGI (786-0 renal) was 2 µM, the TGI (A498 renal) was 1.03 µM and the TGI (A549 NSCLC) was > 26.5 µM. For the same compound, the TGI (BT-549 breast) was > 22.4 µM, the TGI (CAKI-1 renal) was 2.57 µM and the TGI (COLO 205 colon) was > 31.6 µM. For the same compound, the TGI (DU-145 prostate) was 0.398 µM, the TGI (EKVX NSCLC) was > 100 µM and the TGI (HCC-2998 colon) was > 21.1 µM. The TGI (HCT-116 colon) was 23.6 µM, the TGI (HCT-15 colon) was > 100 µM and the TGI (HL-60(TB) leukemia) was > 100 µM. For the same compound, the TGI (HOP-62 NSCLC) was 16 µM, the TGI (HOP-92 NSCLC) was 7.7 µM and the TGI (HS 578T breast) was > 100 µM. The TGI (HT29 colon) was > 47.1 µM, the TGI (IGROV1 ovarian) was > 100 µM and the TGI (KM12 colon) was > 100 µM. The TGI (LOX IMVI melanoma) was 0.229 µM, the TGI (M14 melanoma) was 5.05 µM and the TGI (MALME-3M melanoma) was > 91.9 µM. For the same compound, the TGI (MCF7 breast) was > 66.9 µM, the TGI (MDA-MB-231 breast) was > 100 µM and the TGI (MDA-MB-435) was > 100 µM. For the same compound, the TGI (MDA-N) was > 100 µM, the TGI (MOLT-4 leukemia) was 2.08 µM and the TGI (NCI-H226 lung) was 2.43 µM. The TGI (NCI-H23 lung) was 0.847 µM, the TGI (NCI-H460 lung) was 4.47 µM and the TGI (NCI-H522 lung) was 25.8 µM. The TGI (NCI/ADR-RES ovarian) was 4.26 µM, the TGI (OVCAR-3 ovarian) was > 100 µM and the TGI (OVCAR-4 ovarian) was > 100 µM. The TGI (OVCAR-5 ovarian) was > 100 µM, the TGI (OVCAR-8 ovarian) was 5.26 µM and the TGI (PC-3 prostate) was > 100 µM. The TGI (RXF 393 renal) was 9.18 µM, the TGI (SF-268 CNS) was > 100 µM and the TGI (SF-295 CNS) was 8.14 µM. For the same compound, the TGI (SF-539 CNS) was < 0.0282 µM, the TGI (SK-MEL-2 melanoma) was > 100 µM and the TGI (SK-MEL-28 melanoma) was > 100 µM. For the same compound, the TGI (SK-MEL-5 melanoma) was 1.78 µM, the TGI (SN12C renal) was 11.1 µM and the TGI (SNB-19 CNS) was 58.7 µM. For the same compound, the TGI (SNB-75 CNS) was 4.33 µM, the TGI (SR leukemia) was 0.119 µM and the TGI (SW-620 colon) was > 100 µM. The TGI (TK-10 renal) was > 100 µM, the TGI (U251 CNS) was 31.6 µM and the TGI (UACC-257 melanoma) was 28.7 µM. For the same compound, the TGI (UACC-62 melanoma) was 0.305 µM and the TGI (UO-31 renal) was 2.12 µM.
With `COc1ccc(-c2coc3cc(OC)cc(O)c3c2=O)cc1` the TGI (786-0 renal) was > 100 µM, the TGI (A498 renal) was 89.1 µM and the TGI (A549 NSCLC) was > 100 µM. For the same compound, the TGI (ACHN renal) was > 100 µM, the TGI (CAKI-1 renal) was > 100 µM and the TGI (CCRF-CEM leukemia) was > 100 µM. For the same compound, the TGI (COLO 205 colon) was > 100 µM, the TGI (DU-145 prostate) was > 100 µM and the TGI (EKVX NSCLC) was > 100 µM. The TGI (HCC-2998 colon) was > 100 µM, the TGI (HCT-116 colon) was > 100 µM and the TGI (HCT-15 colon) was > 100 µM. For the same compound, the TGI (HL-60(TB) leukemia) was > 100 µM, the TGI (HOP-62 NSCLC) was > 100 µM and the TGI (HOP-92 NSCLC) was 94.6 µM. For the same compound, the TGI (HS 578T breast) was > 100 µM, the TGI (HT29 colon) was > 100 µM and the TGI (IGROV1 ovarian) was > 100 µM. The TGI (K-562 leukemia) was > 100 µM, the TGI (KM12 colon) was > 100 µM and the TGI (LOX IMVI melanoma) was > 100 µM. For the same compound, the TGI (M14 melanoma) was > 100 µM, the TGI (MALME-3M melanoma) was > 100 µM and the TGI (MCF7 breast) was > 100 µM. For the same compound, the TGI (MDA-MB-231 breast) was > 100 µM, the TGI (MDA-MB-435) was > 100 µM and the TGI (MDA-N) was > 100 µM. The TGI (NCI-H226 lung) was > 100 µM, the TGI (NCI-H23 lung) was > 100 µM and the TGI (NCI-H460 lung) was > 100 µM. For the same compound, the TGI (NCI-H522 lung) was > 100 µM, the TGI (NCI/ADR-RES ovarian) was > 100 µM and the TGI (OVCAR-3 ovarian) was > 100 µM. For the same compound, the TGI (OVCAR-4 ovarian) was > 100 µM, the TGI (OVCAR-5 ovarian) was > 100 µM and the TGI (OVCAR-8 ovarian) was > 100 µM. For the same compound, the TGI (PC-3 prostate) was > 100 µM, the TGI (RPMI-8226 leukemia) was > 100 µM and the TGI (RXF 393 renal) was 83.1 µM. The TGI (SF-268 CNS) was > 100 µM, the TGI (SF-295 CNS) was > 100 µM and the TGI (SF-539 CNS) was > 100 µM. The TGI (SK-MEL-28 melanoma) was > 100 µM, the TGI (SK-MEL-5 melanoma) was > 100 µM and the TGI (SK-OV-3 ovarian) was > 100 µM. The TGI (SN12C renal) was > 100 µM, the TGI (SNB-19 CNS) was > 100 µM and the TGI (SNB-75 CNS) was > 100 µM. For the same compound, the TGI (SR leukemia) was > 100 µM, the TGI (SW-620 colon) was > 100 µM and the TGI (T-47D breast) was > 100 µM. For the same compound, the TGI (TK-10 renal) was 84.4 µM, the TGI (U251 CNS) was > 100 µM and the TGI (UACC-257 melanoma) was > 100 µM. The TGI (UACC-62 melanoma) was > 100 µM.
